# In patent US20240050421A1, “PHARMACEUTICAL FORMULATIONS OF A PHENOLIC TRPV1 AGONIST PRODRUG” (Concentric Analgesics, Inc., priority 2020, published 2024):
# Assay: Water solubility / hydrophilicity compared with capsaicin
# Type: physicochemical
# Conditions: general statement, no method or figures given
compound,measurement,value
"CNCC1CCCCN1C(=O)Oc1ccc(CNC(=O)CCCC/C=C/C(C)C)cc1OC.Cl (stereo not shown) [Compound 1, (E)-2-methoxy-4-((8-methylnon-6-enamido)methyl)phenyl 2-((methylamino)methyl)piperidine-1-carboxylate]",hydrophilicity/water solubility,significantly higher hydrophilicity/water solubility than capsaicin
